Experimental findings from PubChem BioAssay (NCI) are described below.

SMILES strings stand for the structures. Values joined by “and” are separate entries in the source; they are usually repeats but may differ in a detail not shown here. Equal values may be shown once.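 Where inhibition never reached the appropriate level, the endpoint shown equals the highest concentration tested. Otherwise, values were interpolated linearly from a five-concentration, 48-hour dose response in 96-well plates. At the GI50, growth is halved. TGI: total growth inhibition.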

Some test systems named below: IGROV1 ovarian; NCI-H522 lung; OVCAR-4 ovarian; RXF 393 renal; SF-295 CNS; SW-620 colon; UACC-257 melanoma; OVCAR-5 ovarian; A498 renal.
Common to all, as to experiment: inhibition of tumour cell growth, NCI panel, 48 h

As for `COc1cc(C2c3cc4c(cc3[C@@H](NCCN3CCOCC3)C3COC(=O)[C@H]23)OCO4)cc(OC)c1O` (stereo partly specified), the TGI with IGROV1 ovarian is 22.4 µM and > 17.5 µM; in the assay with NCI-H522 lung, 13.1 µM and 9.66 µM; with OVCAR-4 ovarian, 39.3 µM and > 17.5 µM; with RXF 393 renal, 9.33 µM and 10.4 µM; with SF-295 CNS, 13.5 µM and 17.4 µM; in the assay on SW-620 colon, 18.5 µM and > 17.5 µM. Moreover, the TGI in the assay with UACC-257 melanoma is 32.9 µM and > 17.5 µM.

Take `N#CNC(=NCCc1c[nH]c2ccccc12)Oc1ccccc1`: the TGI in the assay on IGROV1 ovarian, in the assay on OVCAR-4 ovarian, in the assay on OVCAR-5 ovarian, in the assay with RXF 393 renal, in the assay on SF-295 CNS and in the assay on SW-620 colon was more than 100 µM throughout. For the same molecule, in the assay with UACC-257 melanoma, the TGI was more than 100 µM.

`COC(=O)C(CC1=C(O)Nc2ccccc2N1)/C(=N/NC(N)=O)C(=O)Nc1ccccc1C` (stereo unspecified): the TGI was more than 100 µM in the assay with A498 renal; more than 100 µM in the assay on IGROV1 ovarian; 33.9 µM in the assay with NCI-H522 lung; more than 100 µM with OVCAR-4 ovarian; more than 100 µM in the assay on OVCAR-5 ovarian; more than 100 µM in the assay with RXF 393 renal. Also, the TGI in the assay with SF-295 CNS and in the assay on UACC-257 melanoma was more than 100 µM each time.

For `O=C1/C(=N\O)S(=O)(=O)c2ccccc21`, the TGI with A498 renal, in the assay on IGROV1 ovarian, with NCI-H522 lung, in the assay on OVCAR-4 ovarian, with OVCAR-5 ovarian and in the assay on RXF 393 renal was more than 100 µM in each case. The TGI with SF-295 CNS, in the assay with SW-620 colon and in the assay on UACC-257 melanoma was more than 100 µM each time.

Take `COC1=C(C)C(=O)c2c(cc3c(c2O)C(C)(CCC=C(C)C)C(C)O3)C1=O` (stereo unspecified): the TGI is 35 µM in the assay with A498 renal; more than 100 µM in the assay on IGROV1 ovarian; more than 100 µM with NCI-H522 lung; more than 100 µM with OVCAR-4 ovarian; more than 100 µM with OVCAR-5 ovarian; more than 100 µM in the assay on RXF 393 renal. Moreover, the values for the TGI with SF-295 CNS, with SW-620 colon and with UACC-257 melanoma were 52.7 µM, more than 100 µM and more than 100 µM, respectively.

Consider `CCc1cccc(C)c1NC(=O)C1=C(C)NC(C)=C(C(=O)Nc2c(C)cccc2CC)C1c1ccc2c(c1)OCO2`, for which the TGI with A498 renal was determined as 34.6 µM; in the assay on IGROV1 ovarian, 78.6 µM; with NCI-H522 lung it was 30.1 µM; in the assay with OVCAR-4 ovarian, 66.1 µM; with OVCAR-5 ovarian it was 44.5 µM; with RXF 393 renal it was 27.2 µM. The TGI with SF-295 CNS worked out at 43.7 µM; in the assay with SW-620 colon, 55.9 µM; with UACC-257 melanoma, 46.3 µM.

For the molecule `COc1cccc(NC(=O)CC(=O)N2N=C(n3ccc4ccccc43)CC2c2ccccc2)c1` (stereo unspecified), the TGI with A498 renal, in the assay with IGROV1 ovarian, in the assay with NCI-H522 lung, with OVCAR-4 ovarian, in the assay with OVCAR-5 ovarian and in the assay on RXF 393 renal was more than 100 µM each time. Also, the TGI in the assay with SF-295 CNS, in the assay on SW-620 colon and in the assay on UACC-257 melanoma was more than 100 µM in each case.

As for `CC(=O)O[C@H]1CCC2[C@@H]3CCC4c5nonc5CC[C@]4(C)C3CC[C@@]21C` (stereo partly specified), the TGI in the assay with A498 renal is more than 10 µM; with IGROV1 ovarian, more than 100 µM; with NCI-H522 lung it was more than 10 µM; with OVCAR-4 ovarian, more than 10 µM; in the assay with OVCAR-5 ovarian, more than 100 µM; in the assay on RXF 393 renal it was more than 10 µM. Also, the TGI is more than 10 µM in the assay with SF-295 CNS, more than 100 µM in the assay on SW-620 colon and more than 10 µM with UACC-257 melanoma. The GI50 with IGROV1 ovarian, in the assay with OVCAR-5 ovarian and in the assay with SW-620 colon was more than 100 µM in each case.

For the molecule `C[CH2][Sn]([CH2]C)([O]C(=O)c1ccccc1F)[O][Sn]([CH2]C)([CH2]C)[O]C(=O)c1ccccc1F`, the GI50 in the assay with A498 renal was 22.5 µM; in the assay with IGROV1 ovarian it was more than 87.8 µM; with NCI-H522 lung, 1.24 µM; in the assay on OVCAR-4 ovarian, more than 51.7 µM; in the assay on OVCAR-5 ovarian, more than 49.3 µM; with RXF 393 renal, 14.1 µM. Besides, the values for the GI50 in the assay with SF-295 CNS, in the assay on SW-620 colon and in the assay on UACC-257 melanoma were 42.1 µM, 20.3 µM and 18.4 µM, respectively. Besides, the TGI with A498 renal is 37.4 µM; in the assay on IGROV1 ovarian, more than 100 µM; with NCI-H522 lung it was 2.61 µM; with OVCAR-4 ovarian, more than 82.8 µM; in the assay on OVCAR-5 ovarian it was more than 71.4 µM; with RXF 393 renal, 27.9 µM. Also, the TGI in the assay on SF-295 CNS is more than 57.8 µM; with SW-620 colon, 36.5 µM; with UACC-257 melanoma, 35.4 µM.

As for `Nc1nc(-c2ccco2)cc(-c2ccc(CO)o2)n1`, the TGI in the assay on IGROV1 ovarian, in the assay on NCI-H522 lung, in the assay on OVCAR-4 ovarian, in the assay with OVCAR-5 ovarian, with RXF 393 renal and in the assay on SF-295 CNS was more than 100 µM throughout. The molecule also returned a TGI in the assay with SW-620 colon of more than 100 µM.

For the molecule `O=C(NC(=Nc1ccccc1)SCCSC(=Nc1ccccc1)NC(=O)c1cccs1)c1cccs1`, the TGI was more than 100 µM in the assay on A498 renal; more than 100 µM in the assay with IGROV1 ovarian; 63.6 µM with NCI-H522 lung; more than 100 µM with OVCAR-4 ovarian; more than 100 µM in the assay with OVCAR-5 ovarian; 68.9 µM with RXF 393 renal. Further, the TGI with SF-295 CNS, with SW-620 colon and in the assay with UACC-257 melanoma was more than 100 µM in each case.

With `NC(=O)NC12CC3CC(CC(F)(C3)C1)C2`, the TGI with A498 renal, in the assay on IGROV1 ovarian, with NCI-H522 lung, with OVCAR-5 ovarian, with RXF 393 renal and in the assay with SW-620 colon was more than 100 µM in each case. In the assay with UACC-257 melanoma, this molecule returned a TGI of more than 100 µM.

Regarding `O=S(=O)(/C=C/CS(=O)(=O)c1ccccc1)c1ccccc1`, the TGI was 82.3 µM in the assay on A498 renal; more than 100 µM with IGROV1 ovarian; more than 100 µM in the assay with OVCAR-4 ovarian; more than 100 µM in the assay on OVCAR-5 ovarian; more than 100 µM in the assay on RXF 393 renal; 93.6 µM with SF-295 CNS. The TGI in the assay with SW-620 colon amounted to 45.7 µM; with UACC-257 melanoma, 87 µM.

Turning to `COc1cc2c(cc1OC)[C@@H](Nc1ccc(F)cc1)C1COC(=O)[C@@H]1C2c1cc(OC)c(O)c(OC)c1` (stereo partly specified), the TGI with A498 renal was 7.78 µM; with IGROV1 ovarian it was more than 100 µM; with NCI-H522 lung, 18.9 µM; with OVCAR-4 ovarian, more than 85.8 µM; in the assay with OVCAR-5 ovarian, more than 100 µM; in the assay on RXF 393 renal, 71.8 µM. Moreover, the TGI is 6.28 µM in the assay on SF-295 CNS, more than 38.5 µM in the assay with SW-620 colon and more than 79.6 µM in the assay with UACC-257 melanoma.

As to `O=C(O)C(CS)NCc1c2ccccc2nc2ccccc12` (stereo unspecified), the TGI with IGROV1 ovarian was more than 100 µM; with NCI-H522 lung it was 88 µM; in the assay with OVCAR-4 ovarian, 37.6 µM; with OVCAR-5 ovarian, more than 100 µM; with RXF 393 renal, 98.4 µM; in the assay with SF-295 CNS it was more than 100 µM. Moreover, the TGI in the assay with SW-620 colon and with UACC-257 melanoma was more than 100 µM in each case.
